# Test results as given in patent US11214548B2, “Cannabinoid receptor modulators” (priority 2009, dated 2022).
# Assays:
# [1] = system: allergic contact dermatitis; conditions: mouse, injection; cited from earlier work
# CB1 = conditions: exogenous administration; cited from earlier work
# [2] = system: Streptozotocin-Induced Painful Diabetic Peripheral Neuropathy (PDPN) Model; test: Streptozotocin-induced painful diabetic peripheral neuropathy (PDPN) model; format: in vivo, male Sprague-Dawley rats; conditions: 10 mg/kg orally in 0.5% methylcellulose; 1, 4 and 6 hours post-dosing, FIG. 17 and FIG. 18
# Protocol: Example 12: Streptozotocin-Induced Painful Diabetic Peripheral Neuropathy (PDPN) Model
# Male Sprague-Dawley rats were injected intraperitoneally with 50 mg/kg of streptozotocin (STZ) in sodium citrate buffer. 10% sucrose water was provided ad libitum for the first 48 hours post-STZ followed by regular drinking water. Rats were monitored once weekly for blood glucose levels and body weights. Development of tactile allodynia over time was analyzed using Von Frey filaments and a 50% withdrawal threshold was determined using Dixon's up-down procedure. […] Tactile allodynia was evaluated at 1, 4 and 6 hours post-dosing.
# [3] = system: paclitaxel model of cancer pain; test: Paclitaxel-induced allodynia in Sprague Dawley rats; format: in vivo, male Sprague Dawley rats; conditions: 10 mg/kg orally
# Protocol: Example 8: Paclitaxel-Induced Allodynia in Sprague Dawley Rats
# Male Sprague Dawley rats [200-250 g] (Harlan Laboratories Inc., Livermore, Calif.) were housed three per cage and maintained in a humidity-controlled (40-60%) and temperature-controlled (68-72° F.) facility on a 12 h:12 h light/dark cycle (lights on at 6:30 am) with free access to food (Harlan Teklad, Orange, Calif., Rodent Diet 8604) and water. Rats were allowed one week of habituation to the animal facility before starting treatment.
# Rats were treated intraperitoneally, with 2 mg/kg of paclitaxel (Sigma Aldrich, Saint Louis, Mo.) in 10% Cremophor vehicle (500 μL) on days 0, 2, 4, and 6.
# Tactile allodynia was tested using von Frey filaments. Briefly, the von Frey assay was performed using the standardized up down method with von Frey filaments, that determine the tactile sensitivity of the paw. By applying the increasingly or decreasingly thicker filaments to the paw in a logarithmic scale of actual force, a linear scale of perceived intensity is determined.
# Eight days after the start of paclitaxel dosing, a baseline measurement (von Frey assay) was performed prior to dosing of compounds. […] As a positive control, rats were dosed intraperitoneally with 100 mg/kg gabapentin in water. The dosing volume for oral and peritoneal treatment was 500 μL. […]
# [4] = system: MIA model of osteoarthritis; test: MIA model of osteoarthritis pain (von Frey, weight distribution, grip strength); format: in vivo, male Sprague Dawley rats; conditions: 3, 10 and 30 mg/kg orally, one hour after dosing, FIG. 2
# Excerpt: Example 5: Effect of Compounds on Osteoarthritis Pain
# Injection of monosodium iodoacetate (MIA) into a joint (Kalbhen, 1987) inhibits the activity of glyceraldehyde-3-phosphate dehydrogenase in chondrocytes, resulting in disruption of glycolysis and eventually in cell death. The progressive loss of chondrocytes results in histological and morphological changes of the articular cartilage, closely resembling those seen in osteoarthritis patients.
# The osteoarthritis was induced in 200 g male Sprague Dawley rats. […]
# Typically during disease progression, there was an inflammation period of 0-7 days post-intra-articular injection followed by progressive degeneration of the cartilage and subchondral bone from days 14-55. […] Tactile allodynia was measured via von Frey assay, hind limb paw weight distribution was monitored using an incapacitence tester (Columbus Instruments, Columbus, Ohio, USA) and hind limb grip strength was measured using a grip strength meter (Columbus Instruments, Columbus, Ohio, USA). […] Hind paw weight distribution was determined by placing rats in a chamber so that each hind paw rests on a separate force plate of the incapacitence tester. The force exerted by each hind limb (measured in grams) is averaged over a 3 second period. Three measurements were taken for each rat, and the change in hind paw weight distribution calculated. […]
# [5] = system: FCA-induced hyperalgesia model of inflammatory pain; test: FCA-induced hyperalgesia in rats; format: in vivo, male Sprague Dawley rats; conditions: 0.1, 1, 3, 10 and 30 mg/kg orally, 1 h post dosing, FIG. 1
# Protocol: Example 7: Effect of Compounds on FCA-Induced Hyperalgesia in Rats
# Male Sprague Dawley rats from Harlan (200-225 g when received) were used. Upon arrival, rats were housed 4 per cage in shoe-box polycarbonate cages with wire tops, wood chip bedding and suspended food and water bottles. Animals were acclimated for 5-7 days prior to being injected with Freund's complete adjuvant (FCA) (Sigma; catalog #5881).
# 2 days (48 h) before testing compounds, baseline readings of all rats were taken right before FCA injection. Rats were then injected with 50 μL FCA containing 1 mg/mL Mtb (Mycobacterium tuberculosis) in right hind footpad under inhalation anesthesia (isoflurane). 48 hours after FCA injection, readings were taken as pre-dosing baseline and then rats were dosed orally with 0.5 mL of vehicle or compound (0.5 mL per 250 g rat). Readings were taken again at 1 h post dosing. All readings were taken with an Analgesy-Meter (Ugo Basile) which measures mechanical hyperalgesia via paw pressure.
# FCA-induced hyperalgesia was tested with an Analgesy-Meter. Briefly, the Analgesy Meter applied an increasing pressure to the right hind paw. The paw withdrawal threshold was the pressure leading to withdrawal.
# Meanwhile a group of rats were dosed orally with 50 mg/kg of Diclofenac as a positive control. Readings were taken again at 1 h post dosing. Dosing volume was 500 μL per 250 g rat.
# vagus nerve preparations = conditions: guinea pig and human vagus nerve preparations in vitro; cited from earlier work
# cough = conditions: conscious guinea-pigs, administration prior to citric acid; cited from earlier work
# atherosclerosis = conditions: cited from earlier work
# acute and chronic pain = conditions: animal studies; cited from earlier work
# EAE = conditions: cited from earlier work
# [6] = system: bovine nasal cartilage explants; conditions: bovine nasal cartilage explants in vitro; cited from earlier work
# capsaicin-induced coughs = conditions: mice; cited from earlier work
# EAU = EAU model in mice; cited from earlier work
# RPE cells = conditions: cited from earlier work
# [7] = system: hypersensitivity following ligation of spinal nerves; conditions: rats, cited from earlier work
# hyperalgesia = conditions: rodents, systemic delivery; cited from earlier work
# [8] = system: bone marrow-derived osteoblasts/stromal cells; conditions: in vitro; cited from earlier work
# [9] = system: ovariectomy-induced bone loss; conditions: in vivo; cited from earlier work
# [10] = system: histamine-induced responses; conditions: human skin, topical administration; cited from earlier work
# [11] = system: capsaicin-induced hyperalgesia and allodynia; conditions: humans, topical administration; cited from earlier work
compound,measurement,setting,value
"Cc1c(C(=O)NN2CCCCC2)nn(-c2ccc(Cl)cc2Cl)c1-c1ccc(Cl)cc1 [Compound S141716A, S141716A]",cutaneous inflammation and the pruritis (itch) associated with it,[1],exacerbates
CCCCC/C=C\C/C=C\C/C=C\C/C=C\CCCC(=O)NCCCl [arachidonyl-2-chloroethylamide],pain,CB1,reduces
"CC(C)(C)[C@@H](CO)NC(=O)c1nn(-c2c[n+]([O-])ccn2)c2c1C[C@@H]1C[C@H]21 [Compound 699, (1aS,5aS)-2-(4-Oxy-pyrazin-2-yl)-1a,2,5,5a-tetrahydro-1H-2,3-diaza-cyclopropa[a]pentalene-4-carboxylic Acid ((S)-1-Hydroxymethyl-2,2-dimethyl-propyl)-amide]","analgesic efficacy (tactile allodynia, 50% withdrawal threshold)",[2],robust and sustained analgesic efficacy over 6 hours
"CC(C)(CO)NC(=O)c1nn(-c2ccc(F)cc2F)c2c1C[C@H]1C[C@@H]21 [Compound 493, (1aR,5aR)-2-(2,4-Difluoro-phenyl)-1a,2,5,5a-tetrahydro-1H-2,3-diaza-cyclopropa[a]pentalene-4-carboxylic Acid (2-Hydroxy-1,1-dimethyl-ethyl)-amide]",time of maximum efficacy post-dosing,[3]; von Frey time course,1 h
same,paw withdrawal threshold (PWT) in comparison with vehicle and gabapentin,"[3]; 30, 60 and 180 minutes after dosing, FIG. 3",increase in paw withdrawal threshold (PWT)
same,paw withdrawal threshold (PWT) in comparison with vehicle,[4],Increase in paw withdrawal threshold (PWT)
same,paw withdrawal threshold (PWT) in comparison with the vehicle,[5],increase in paw withdrawal threshold (PWT)
CCCC(C)(C)c1ccc2c(c1)OC(C)(C)[C@@H]1CC=C(C)C[C@@H]21 [JWH133],"capsaicin-, PGE2- and hypertonic saline-induced depolarization",vagus nerve preparations,reduces
same,cough,cough,significantly reduces
CCCCCc1cc(O)c2c(c1)OC(C)(C)[C@@H]1CCC(C)=C[C@@H]21 [THC],cutaneous inflammation and the pruritis (itch) associated with it,[1],reduces
same,progression of atherosclerosis,atherosclerosis; ApoE knockout mice,reduces
same,"effect against acute and chronic pain from chemical, mechanical, and thermal pain stimuli",acute and chronic pain,effective
same,severity of clinical disease,EAE; EAE mouse model,significantly inhibits
Cc1c(C(=O)c2cccc3ccccc23)c2cccc3c2n1[C@H](CN1CCOCC1)CO3 [WIN 55212-2],IL-1alpha-stimulated proteoglycan and collagen degradation,[6],significantly inhibit
same,"effect against acute and chronic pain from chemical, mechanical, and thermal pain stimuli",acute and chronic pain,effective
same,number of capsaicin-induced coughs,capsaicin-induced coughs,dose-dependent inhibition
same,neuroprotection,EAU,significant neuroprotection
same,leukocyte rolling and adhesion in the brain,EAE; EAE mouse model,significantly inhibits
"CCCCCCC(C)(C)c1ccc([C@@H]2C[C@H](O)CC[C@H]2CCCO)c(O)c1 [CP55,940]",protection of RPE cells from oxidative damage,RPE cells,significantly protects
same,"capsaicin-, PGE2- and hypertonic saline-induced depolarization",vagus nerve preparations,reduces
same,"effect against acute and chronic pain from chemical, mechanical, and thermal pain stimuli",acute and chronic pain,effective
"CC(C)(NC(=O)c1nn(-c2c[n+]([O-])ccn2)c2c1C[C@@H]1C[C@H]21)C(F)(F)F [Compound 919, (1aS,5aS)-2-(4-Oxy-pyrazin-2-yl)-1a,2,5,5a-tetrahydro-1H-2,3-diaza-cyclopropa[a]pentalene-4-carboxylic acid (2,2,2-trifluoro-1,1-dimethyl-ethyl)-amide]","analgesic efficacy (tactile allodynia, 50% withdrawal threshold)",[2],robust and sustained analgesic efficacy over 6 hours
CN1CCCCC1Cn1cc(C(=O)c2cc([N+](=O)[O-])ccc2I)c2ccccc21 (stereo not shown) [AM1241],tactile and thermal hypersensitivity,"[7]; local (subcutaneous) or systemic administration, chronic constriction injury model",reverses
same,"hyperalgesia induced in the carrageenan, capsaicin, and formalin models",hyperalgesia,suppresses
CCCCCCC(C)(C)c1cc(OC)c([C@@H]2C=C(CO)[C@@H]3C[C@H]2C3(C)C)c(OC)c1 [HU-308],endocortical osteoblast numbers and activity,[8],enhances
same,proliferation of osteoclast precursors,[8],inhibiting
same,"recruitment of immature myeloid cells and T cells, microglial and infiltrating myeloid cell proliferation, and axonal loss",EAE; EAE model,markedly reduces
same,ovariectomy-induced bone loss,[9],attenuates
SR144528,cutaneous inflammation and the pruritis (itch) associated with it,[1],exacerbates
same,blockade of the THC effect on atherosclerosis,atherosclerosis; in vitro and in vivo,completely blocks
same,blockade of the WIN 55212-2 effect on leukocyte rolling and adhesion,EAE; EAE mouse model,blocked
COc1ccc2c(c1)c(CCN1CCOCC1)c(C)n2C(=O)c1cccc(Cl)c1Cl [GW405833],hypersensitivity to mechanical stimuli,[7]; administered systemically,significantly reverses
CCCCCCC(C)(C)c1cc(O)c2c(c1)OC(C)(C)[C@@H]1CC=C(CO)C[C@@H]21 [HU-210],IL-1alpha-stimulated proteoglycan and collagen degradation,[6],significantly inhibit
same,histamine-induced responses,[10],reduces
same,capsaicin-induced hyperalgesia and allodynia,[11],attenuates
COc1ccc(C(=O)c2c(C)n(CCN3CCOCC3)c3cc(I)ccc23)cc1 [AM630],inhibition of the AM1241 effect on tactile and thermal hypersensitivity,[7],inhibited
CCCn1c(C)c(C(=O)c2cccc3ccccc23)c2ccccc21 [JWH015],protection of RPE cells from oxidative damage,RPE cells,comparable protection
